From US20220313698A1, “MODULATORS OF CYSTIC FIBROSIS TRANSMEMBRANE CONDUCTANCE REGULATOR” (Vertex Pharmaceuticals Incorporated, priority 2019, published 2022)
Values joined by “and” are separate entries in the source; they are usually repeats but may differ in a detail not shown here. Equal entries are not always repeated. Where two headings read alike, the source gives them in different places. One block for each compound: values may come before it.

How the values were obtained:
[1] = snar bond
[2] = target: T1, CFTR-mediated chloride transport (Homo sapiens, UniProt P13569); experiment: Corrector Assay B - membrane potential dye assay (enteroid cells); conditions: for Corrector Assay B % activity: % of chloride transport of triple combination control (3 μM Compound A + 3 μM tezacaftor + 300 nM ivacaftor); for EC50: read-out: Corrector Assay B EC50, human intestinal enteroid cells, 18-24 h incubation, acute 10 μM forskolin + 300 nM ivacaftor;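 as to all read-outs here: methyl oxonol membrane potential fluorescence followed over 15 min after switching to chloride-free buffer with forskolin, 100 µM IBMX and ivacaftor, in presence of CaCC blockers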
[3] = target: T1, CFTR-mediated chloride transport; experiment: Corrector Assay A - membrane potential dye assay (enteroid cells); conditions: for Corrector Assay A % activity: % of chloride transport of triple combination control (1 μM (14S)-dispiro macrocycle + 3 μM tezacaftor + 300 nM ivacaftor); for EC50: read-out: Corrector Assay A EC50, human intestinal enteroid cells, 18-24 h incubation, acute 10 μM forskolin + 300 nM ivacaftor
Method: Base medium (ADF+++) consisted of Advanced DMEM/Ham's F12, 2 mM Glutamax, 10 mM HEPES, 1 μg/ml penicillin/streptomycin.
Intestinal enteroid maintenance medium (IEMM) consisted of ADF+++, 1×B27 supplement, 1×N2 supplement, 1.25 mM N-acetyl cysteine, 10 mM Nicotinamide, 50 ng/mL hEGF, 10 nM Gastrin, 1 μg/mL hR-spondin-1, 100 ng/mL hNoggin, TGF-b type 1 inhibitor A-83-01, 100 μg/mL Primocin, 10 μM P38 MAPK inhibitor SB202190.
Bath 1 Buffer consisted of 1 mM MgCl2, 160 mM NaCl, 4.5 mM KCl, 10 mM HEPES, 10 mM Glucose, 2 mM CaCl2).
Chloride Free Buffer consisted of 1 mM Magnesium Gluconate, 2 mM Calcium Gluconate, 4.5 mM Potassium Gluconate, 160 mM Sodium Gluconate, 10 mM HEPES, 10 mM Glucose.
Bath 1 Dye Solution consisted of Bath 1 Buffer, 0.04% Pluronic F127, 20 μM Methyl Oxonol, 30 μM CaCCinh-A01, 30 μM Chicago Sky Blue.
Chloride Free Dye Solution consisted of Chloride Free Buffer, 0.04% Pluronic F127, 20 μM Methyl Oxonol, 30 μM CaCCinh-A01, 30 μM Chicago Sky Blue.
Chloride Free Dye Stimulation Solution consisted of Chloride Free Dye Solution, 10 μM forskolin, 100 μM IBMX, and 300 nM Ivacaftor.
Cells were recovered in cell recovery solution, collected by centrifugation at 650 rpm for 5 min at 4° C., resuspended in TryPLE and incubated for 5 min at 37° C. Cells were then collected by centrifugation at 650 rpm for 5 min at 4° C. and resuspended in IEMM containing 10 μM ROCK inhibitor (RI). The cell suspension was passed through a 40 μm cell strainer and resuspended at 1×10^6 cells/mL in IEMM containing 10 μM RI. Cells were seeded at 5000 cells/well into multi-well plates and incubated for overnight at 37° C., 95% humidity and 5% CO2 prior to assay.
Briefly, cells were washed 5 times in Bath 1 Buffer. Bath 1 Dye Solution was added and the cells were incubated for 25 min at room temperature. Following dye incubation, cells were washed 3 times in Chloride Free Dye Solution. Chloride transport was initiated by addition of Chloride Free Dye Stimulation Solution and the fluorescence signal was read for 15 min. The CFTR-mediated chloride transport for each condition was determined from the AUC of the fluorescence response to acute forskolin and 300 nM N-[2,4-bis(1,1-dimethylethyl)-5-hydroxyphenyl]-1,4-dihydro-4-oxoquinoline-3-carboxamide stimulation. Chloride transport was then expressed as a percentage of the chloride transport following treatment with 1 μM (14S)-8-[3-(2-{Dispiro[2.0.2.1]heptan-7-yl}ethoxy)-1H-pyrazol-1-yl]-12,12-dimethyl-2λ^6-thia-3,9,11,18,23-pentaazatetracyclo[17.3.1.111,14.05,10]tetracosa-1(22),5,7,9,19(23),20-hexaene-2,2,4-trione, 3 μM (R)-1-(2,2-difluorobenzo[d][1,3]dioxol-5-yl)-N-(1-(2,3-dihydroxypropyl)-6-fluoro-2-(1-hydroxy-2-methylpropan-2-yl)-1H-indol-5-yl)cyclopropanecarboxamide and 300 nM acute N-[2,4-bis(1,1-dimethylethyl)-5-hydroxyphenyl]-1,4-dihydro-4-oxoquinoline-3-carboxamide triple combination control (% Activity).

Compound: CCCC1(C)CC2CCCNc3cccc(n3)S(=O)(=O)NC(=O)c3ccc(-n4ccc(OCCC5(C(F)(F)F)CC5)n4)nc3N1C2 (stereo not shown)
ring closure, yield after HPLC ([1]; from CCCC1(C)CC(CCCNc2cccc(S(=O)(=O)NC(=O)c3ccc(-n4ccc(OCCC5(C(F)(F)F)CC5)n4)nc3Cl)n2)CN1, 15-membered ring, K2CO3, NMP, 20.9 mM, 150.0 °C, 16.0 h): 28%

Compound: CC(C)(C)c1ccc2c(n1)N1CC(CC1(C)C)OCCNc1cccc(n1)S(=O)(=O)NC2=O (stereo not shown)
ring closure, yield after HPLC ([1]; from CC(C)(C)OC(=O)N1CC(OCCNc2cccc(S(=O)(=O)NC(=O)c3ccc(C(C)(C)C)nc3F)n2)CC1(C)C, 15-membered ring, K2CO3, NMP, 73.3 mM, 160.0 °C, 2 steps): 61%

Compound: CC(C)COc1cc(F)cc(-c2ccc3c(n2)N2C[C@@H](CCC(c4ccccn4)Nc4cccc(n4)S(=O)(=O)NC3=O)CC2(C)C)c1 (stereo partly shown)
ring closure, yield after HPLC ([1]; from CC(C)COc1cc(F)cc(-c2ccc(C(=O)NS(=O)(=O)c3cccc(NC(CC[C@@H]4CN(C(=O)OC(C)(C)C)C(C)(C)C4)c4ccccn4)n3)c(Cl)n2)c1, 15-membered ring, K2CO3, NMP, 38.2 mM, 140.0 °C, 2 steps): 18% and 31%

Compound: CC1(C)CC2CC(c3ccccc3)CNc3cccc(n3)S(=O)(=O)NC(=O)c3ccc(-n4ccc(OCCC5(C(F)(F)F)CC5)n4)nc3N1C2 (stereo not shown)
ring closure, yield after HPLC ([1]; from CC(C)(C)OC(=O)N1CC(CC(CNc2cccc(S(=O)(=O)NC(=O)c3ccc(-n4ccc(OCCC5(C(F)(F)F)CC5)n4)nc3Cl)n2)c2ccccc2)CC1(C)C, 15-membered ring, K2CO3/4A MS, DMSO, 44.7 mM, 140.0 °C, 2 steps): 60%

Compound: CC(C)(C)OC(=O)N1C[C@@H](CCC(c2ccccc2)n2ccc(S(=O)(=O)NC(=O)c3ccc(C(C)(C)C)nc3Cl)n2)CC1(C)C (stereo partly shown)
ring closure, yield after HPLC ([1]; the molecule shown is the open-chain precursor, 14-membered ring, K2CO3, NMP, 74.5 mM, 140.0 °C, 2 steps): 13%

Compound: CC(C)(C)c1ccc2c(n1)N1C[C@@H](CCC(c3ccc(Cl)cn3)Nc3cccc(n3)S(=O)(=O)NC2=O)CC1(C)C (single isomer, unassigned; diastereomer 1)
ring closure, yield after HPLC ([1]; from CC1(C)C[C@H](CCC(Nc2cccc(S(=O)(=O)NC(=O)c3ccc(C(C)(C)C)nc3F)n2)c2ccc(Cl)cn2)CN1, 15-membered ring, K2CO3/3A MS, NMP, 78.4 mM, 150.0 °C, 4.0 h, 2 steps): 39%

Compound: CC(C)C1CC[C@@H]2CN(c3nc(-n4ccc(OCCC5C6(CC6)C56CC6)n4)ccc3C(=O)NS(=O)(=O)c3cccc(n3)N1)C(C)(C)C2 (single isomer, unassigned; diastereomer 1)
ring closure, yield after HPLC ([1]; from CC(C)C(CC[C@H]1CNC(C)(C)C1)Nc1cccc(S(=O)(=O)NC(=O)c2ccc(-n3ccc(OCCC4C5(CC5)C45CC5)n3)nc2Cl)n1, 15-membered ring, K2CO3, NMP, 20.9 mM, 165.0 °C, 16.0 h): 68%

Compound: CC(C)(C)c1ccc2c(n1)N1C[C@@H](CCC(C3=CCN(C(=O)OCc4ccccc4)CC3)Nc3cccc(n3)S(=O)(=O)NC2=O)CC1(C)C (stereo partly shown)
ring closure, yield after HPLC ([1]; from CC1(C)C[C@H](CCC(Nc2cccc(S(=O)(=O)NC(=O)c3ccc(C(C)(C)C)nc3F)n2)C2=CCN(C(=O)OCc3ccccc3)CC2)CN1, 15-membered ring, K2CO3/3A MS, NMP, 29.7 mM, 155.0 °C, 18.0 h, 2 steps): 89%

Compound: CC1(C)CC2CCC(c3ccccc3)Nc3cccc(n3)S(=O)(=O)NC(=O)c3ccc(-n4ccc(OCCC5(C(F)(F)F)CC5)n4)nc3N1C2 (single isomer, unassigned) [Compound 387, 12,12-Dimethyl-17-phenyl-8-(3-{2-[1-(trifluoromethyl)cyclopropyl]ethoxy}-1H-pyrazol-1-yl)-2λ^6-thia-3,9,11,18,23-pentaazatetracyclo[17.3.1.111,14.05,10]tetracosa-1(22),5,7,9,19(23),20-hexaene-2,2,4-trione]
Corrector Assay B % activity [2]: +++ (+++ is >60%)
Corrector Assay A % activity [3]: +++ (+++ is >60%)
EC50 [3]: < 1000 nM

Compound: CC(C)(C)c1ccc2c(n1)N1C[C@@H](CCC(c3cc(Cl)ccn3)Nc3cccc(n3)S(=O)(=O)NC2=O)CC1(C)C (stereo partly shown)
ring closure, yield after HPLC ([1]; from CC(C)(C)OC(=O)N1C[C@@H](CCC(Nc2cccc(S(=O)(=O)NC(=O)c3ccc(C(C)(C)C)nc3F)n2)c2cc(Cl)ccn2)CC1(C)C, 15-membered ring, K2CO3, NMP, 142.0 mM, 140.0 °C, 2 steps): 43%

Corrector Assay B % activity [2]: +++ (+++ is >60%)
EC50 [2]: < 1000 nM
Corrector Assay A % activity [3]: +++ (+++ is >60%)
EC50 [3]: < 1000 nM
Compound: CC1(C)C[C@@H]2CCC(c3ccccc3)Nc3cccc(n3)S(=O)(=O)NC(=O)c3ccc(-n4ccc(OCCC5C6(CC6)C56CC6)n4)nc3N1C2 (single isomer, unassigned) [Compound 363]

Compound: CC(C)C1CC[C@@H]2CN(c3nc(-n4ccc(OCCC5C6(CC6)C56CC6)n4)ccc3C(=O)NS(=O)(=O)c3cccc(n3)N1)C(C)(C)C2 (single isomer, unassigned; diastereomer 2)
ring closure, yield after HPLC ([1]; from CC(C)C(CC[C@H]1CNC(C)(C)C1)Nc1cccc(S(=O)(=O)NC(=O)c2ccc(-n3ccc(OCCC4C5(CC5)C45CC5)n3)nc2Cl)n1, 15-membered ring, K2CO3, NMP, 23.0 mM, 165.0 °C, 16.0 h): 60%

Corrector Assay B % activity [2]: +++ (+++ is >60%)
Corrector Assay A % activity [3]: +++ (+++ is >60%)
EC50 [3]: < 1000 nM
Compound: CC1(C)C[C@@H]2CCC(c3ccccc3)Nc3cccc(n3)S(=O)(=O)NC(=O)c3ccc(-n4ccc(OCCC5C6(CC6)C56CC6)n4)nc3N1C2 (single isomer, unassigned) [Compound 364]

Compound: CC(C)(C)c1ccc2c(n1)N1C[C@@H](CCC(c3ccc(C(=O)O)cc3)Nc3cccc(n3)S(=O)(=O)NC2=O)CC1(C)C (stereo partly shown)
ring closure, yield after HPLC ([1]; from CC1(C)C[C@H](CCC(Nc2cccc(S(=O)(=O)NC(=O)c3ccc(C(C)(C)C)nc3Cl)n2)c2ccc(C(=O)O)cc2)CN1, 15-membered ring, K2CO3, NMP, 26.5 mM, 165.0 °C, 48.0 h): 24%

Compound: CC1(C)CC2CN1c1nc(-n3ccc(OCCC4(C(F)(F)F)CC4)n3)ccc1C(=O)NS(=O)(=O)c1cccc(n1)NCCC2c1ccccc1 (stereo not shown)
ring closure, yield after HPLC ([1]; from CC1(C)CC(C(CCNc2cccc(S(=O)(=O)NC(=O)c3ccc(-n4ccc(OCCC5(C(F)(F)F)CC5)n4)nc3Cl)n2)c2ccccc2)CN1, 15-membered ring, K2CO3/3A MS, DMSO, 38.4 mM, 155.0 °C, 16.0 h, 2 steps): 50%

Compound: CC(C)(C)c1ccc2c(n1)N1C[C@@H](CCC(C3CCN(C(=O)OCc4ccccc4)CC3)Nc3cccc(n3)S(=O)(=O)NC2=O)CC1(C)C (stereo partly shown)
ring closure, yield after HPLC ([1]; from CC1(C)C[C@H](CCC(Nc2cccc(S(=O)(=O)NC(=O)c3ccc(C(C)(C)C)nc3F)n2)C2CCN(C(=O)OCc3ccccc3)CC2)CN1, 15-membered ring, K2CO3, NMP, 42.0 mM, 140.0 °C, 16.0 h): 58%

Compound: CC1(C)CC2CN1c1nc(-n3ccc(OCCC4(C(F)(F)F)CC4)n3)ccc1C(=O)NS(=O)(=O)c1cccc(n1)NCCC2c1ccccc1 (single isomer, unassigned) [Compound 385, 12,12-dimethyl-15-phenyl-8-(3-{2-[1-(trifluoromethyl)cyclopropyl]ethoxy}-1H-pyrazol-1-yl)-2λ^6-thia-3,9,11,18,23-pentaazatetracyclo[17.3.1.111,14.05,10]tetracosa-1(22),5,7,9,19(23),20-hexaene-2,2,4-trione]
Corrector Assay B % activity [2]: ++ (++ is 30-60%)
EC50 [2]: < 1000 nM
Corrector Assay A % activity [3]: ++ (++ is 30-60%)
EC50 [3]: < 1000 nM

Compound: CC(C)(C)c1ccc2c(n1)N1CC(CCCOc3cccc(c3)S(=O)(=O)NC2=O)CC1(C)C (stereo not shown)
ring closure, yield after HPLC ([1]; from CC1(C)CC(CCCOc2cccc(S(=O)(=O)NC(=O)c3ccc(C(C)(C)C)nc3F)c2)CN1, 15-membered ring, K2CO3, NMP, 27.5 mM, 150.0 °C, 16.0 h): 41%

Compound: CC(C)(C)c1ccc2c(n1)N1C[C@@H](CCC(c3ccc(Cl)cn3)Nc3cccc(n3)S(=O)(=O)NC2=O)CC1(C)C (single isomer, unassigned; diastereomer 2)
ring closure, yield after HPLC ([1]; from CC1(C)C[C@H](CCC(Nc2cccc(S(=O)(=O)NC(=O)c3ccc(C(C)(C)C)nc3F)n2)c2ccc(Cl)cn2)CN1, 15-membered ring, K2CO3/3A MS, NMP, 55.9 mM, 150.0 °C, 4.0 h, 2 steps): 34%

Compound: CC(C)(C)c1ccc2c(n1)N1CC(CCN(c3ccccc3)C(=O)c3cccc(c3)S(=O)(=O)NC2=O)CC1(C)C (stereo not shown)
ring closure, yield after HPLC ([1]; from CC1(C)CC(CCN(C(=O)c2cccc(S(=O)(=O)NC(=O)c3ccc(C(C)(C)C)nc3Cl)c2)c2ccccc2)CN1, 15-membered ring, K2CO3, then CsF/3A MS, NMP, 24.6 mM, 180.0 °C, 88.0 h): 29%

Compound: CC1(C)C[C@@H]2CCCNc3cccc(n3)S(=O)(=O)NC(=O)c3cc(Cc4ccccc4)c(F)nc3N1C2
ring closure, yield after HPLC ([1]; from CC1(C)C[C@H](CCCNc2cccc(S(=O)(=O)NC(=O)c3cc(Cc4ccccc4)c(F)nc3F)n2)CN1, 15-membered ring, K2CO3, NMP, 71.8 mM, 160.0 °C, 21.5 h, 2 steps): 33%

Compound: CC1(C)C[C@@H]2CCC(c3ccc(C(=O)O)cc3)Nc3cccc(n3)S(=O)(=O)NC(=O)c3ccc(-n4ccc(OCCC5(C(F)(F)F)CC5)n4)nc3N1C2 (stereo partly shown)
ring closure, yield after HPLC ([1]; from CC1(C)C[C@H](CCC(Nc2cccc(S(=O)(=O)NC(=O)c3ccc(-n4ccc(OCCC5(C(F)(F)F)CC5)n4)nc3Cl)n2)c2ccc(C(=O)O)cc2)CN1, 15-membered ring, K2CO3, NMP, 19.4 mM, 150.0 °C, 18.0 h): 40%

Corrector Assay B % activity [2]: +++ (+++ is >60%)
Corrector Assay A % activity [3]: +++ (+++ is >60%)
EC50 [3]: < 1000 nM
Compound: CC1(C)C[C@@H]2CCC(c3ccccn3)Nc3cccc(n3)S(=O)(=O)NC(=O)c3ccc(-n4ccc(OCCC5(C(F)(F)F)CC5)n4)nc3N1C2 (single isomer, unassigned) [Compound 362]

Corrector Assay B % activity [2]: +++ (+++ is >60%)
EC50 [2]: < 1000 nM
Corrector Assay A % activity [3]: ++ (++ is 30-60%)
EC50 [3]: < 1000 nM
Compound: CC(C)(C)c1ccc2c(n1)N1C[C@@H](CC[C@@H](c3ccccc3)Nc3cccc(n3)S(=O)(=O)NC2=O)CC1(C)C (single isomer, unassigned) [Compound 295]

Compound: CC(C)(C)c1ccc2c(n1)N1C[C@@H](CCC(CCC(C3CC3)C3CC3)Nc3cccc(n3)S(=O)(=O)NC2=O)CC1(C)C (stereo partly shown)
ring closure, yield after HPLC ([1]; from CC(C)(C)OC(=O)N1C[C@@H](CCC(CCC(C2CC2)C2CC2)Nc2cccc(S(=O)(=O)NC(=O)c3ccc(C(C)(C)C)nc3F)n2)CC1(C)C, 15-membered ring, K2CO3, DMSO, 77.1 mM, 140.0 °C, 2 steps): 46%
